{"source": "patent US20180092358A1", "about": "“HERBICIDAL MIXTURES” (Syngenta Participations AG, priority 2015, published 2018)", "type_in_all_cases": "in vivo", "key": {"Abutilon theophrasti [1]": {"test_system": "Abutilon theophrasti", "test": "Pre-emergence herbicidal activity (glasshouse)", "settings": "application pre-emergence, 1000 g/Ha, evaluated after 13 days, scale 0-5", "procedure": "(§1) Seeds of a variety of test species were sown in standard soil in pots. After cultivation for one day (pre-emergence) under controlled conditions in a glasshouse (at 24/16° C., day/night; 14 hours light; 65% humidity), the plants were sprayed with an aqueous spray solution derived from the formulation of the technical active ingredient in acetone/water (50:50) solution containing 0.5% Tween 20 (polyoxyethelyene sorbitan monolaurate, CAS RN 9005-64-5). The test plants were then grown in a glasshouse under controlled conditions (at 24/16° C., day/night; 14 hours light; 65% humidity) and watered twice daily. After 13 days, the test was evaluated (5=total damage to plant; 0=no damage to plant)."}, "Alopecurus myosuroides [2]": {"test_system": "Alopecurus myosuroides", "test": "Pre-emergence herbicidal activity (glasshouse)", "settings": "application pre-emergence, 1000 g/Ha, evaluated after 13 days, scale 0-5", "procedure": "as §1"}, "Amaranthus retroflexus [3]": {"test_system": "Amaranthus retroflexus", "test": "Pre-emergence herbicidal activity (glasshouse)", "settings": "application pre-emergence, 1000 g/Ha, evaluated after 13 days, scale 0-5", "procedure": "as §1"}, "Echinochloa crus-galli [4]": {"test_system": "Echinochloa crus-galli", "test": "Pre-emergence herbicidal activity (glasshouse)", "settings": "application pre-emergence, 1000 g/Ha, evaluated after 13 days, scale 0-5", "procedure": "as §1"}, "Setaria faberi [5]": {"test_system": "Setaria faberi", "test": "Pre-emergence herbicidal activity (glasshouse)", "settings": "application pre-emergence, 1000 g/Ha, evaluated after 13 days, scale 0-5", "procedure": "as §1"}, "Zea mays [6]": {"test_system": "Zea mays", "test": "Pre-emergence herbicidal activity (glasshouse)", "settings": "application pre-emergence, 1000 g/Ha, evaluated after 13 days, scale 0-5", "procedure": "as §1"}, "Abutilon theophrasti [7]": {"test_system": "Abutilon theophrasti", "test": "Post-emergence herbicidal activity (glasshouse)", "settings": "application post-emergence, 1000 g/Ha, evaluated after 13 days, scale 0-5", "procedure": "(§2) Seeds of a variety of test species were sown in standard soil in pots. After 8 days cultivation (post-emergence) under controlled conditions in a glasshouse (at 24/16° C., day/night; 14 hours light; 65% humidity), the plants were sprayed with an aqueous spray solution derived from the formulation of the technical active ingredient in acetone/water (50:50) solution containing 0.5% Tween 20 (polyoxyethelyene sorbitan monolaurate, CAS RN 9005-64-5). The test plants were then grown in a glasshouse under controlled conditions (at 24/16° C., day/night; 14 hours light; 65% humidity) and watered twice daily. After 13 days, the test was evaluated (5=total damage to plant; 0=no damage to plant)."}, "Alopecurus myosuroides [8]": {"test_system": "Alopecurus myosuroides", "test": "Post-emergence herbicidal activity (glasshouse)", "settings": "application post-emergence, 1000 g/Ha, evaluated after 13 days, scale 0-5", "procedure": "as §2"}, "Amaranthus retroflexus [9]": {"test_system": "Amaranthus retroflexus", "test": "Post-emergence herbicidal activity (glasshouse)", "settings": "application post-emergence, 1000 g/Ha, evaluated after 13 days, scale 0-5", "procedure": "as §2"}, "Echinochloa crus-galli [10]": {"test_system": "Echinochloa crus-galli", "test": "Post-emergence herbicidal activity (glasshouse)", "settings": "application post-emergence, 1000 g/Ha, evaluated after 13 days, scale 0-5", "procedure": "as §2"}, "Setaria faberi [11]": {"test_system": "Setaria faberi", "test": "Post-emergence herbicidal activity (glasshouse)", "settings": "application post-emergence, 1000 g/Ha, evaluated after 13 days, scale 0-5", "procedure": "as §2"}, "Zea mays [12]": {"test_system": "Zea mays", "test": "Post-emergence herbicidal activity (glasshouse)", "settings": "application post-emergence, 1000 g/Ha, evaluated after 13 days, scale 0-5", "procedure": "as §2"}}, "data": [{"smiles": "CN1CC(O)N(c2cc(C(F)(F)F)ccn2)C1=O", "note": "(stereo not shown) [Compound 1.4, 4-hydroxy-1-methyl-3-[4-(trifluoromethyl)-2-pyridyl]imidazolidin-2-one]", "values": [{"measurement": "damage to plant score, ABUTH", "setting": "Abutilon theophrasti [1]", "result": 5}, {"measurement": "damage to plant score, ALOMY", "setting": "Alopecurus myosuroides [2]", "result": 4}, {"measurement": "damage to plant score, AMARE", "setting": "Amaranthus retroflexus [3]", "result": 5}, {"measurement": "damage to plant score, ECHCG", "setting": "Echinochloa crus-galli [4]", "result": 5}, {"measurement": "damage to plant score, SETFA", "setting": "Setaria faberi [5]", "result": 4}, {"measurement": "damage to plant score, ZEAMX", "setting": "Zea mays [6]", "result": 3}, {"measurement": "damage to plant score, ABUTH", "setting": "Abutilon theophrasti [7]", "result": 5}, {"measurement": "damage to plant score, ALOMY", "setting": "Alopecurus myosuroides [8]", "result": 5}, {"measurement": "damage to plant score, AMARE", "setting": "Amaranthus retroflexus [9]", "result": 5}, {"measurement": "damage to plant score, ECHCG", "setting": "Echinochloa crus-galli [10]", "result": 5}, {"measurement": "damage to plant score, SETFA", "setting": "Setaria faberi [11]", "result": 5}, {"measurement": "damage to plant score, ZEAMX", "setting": "Zea mays [12]", "result": 5}]}, {"smiles": "CCOC1C(O)N(c2cc(C(F)(F)F)ccn2)C(=O)N1C", "note": "(stereo not shown) [Compound 1.3, 5-ethoxy-4-hydroxy-1-methyl-3-[4-(trifluoromethyl)-2-pyridyl]imidazolidin-2-one]", "values": [{"measurement": "damage to plant score, ABUTH", "setting": "Abutilon theophrasti [1]", "result": 5}, {"measurement": "damage to plant score, ALOMY", "setting": "Alopecurus myosuroides [2]", "result": 4}, {"measurement": "damage to plant score, AMARE", "setting": "Amaranthus retroflexus [3]", "result": 5}, {"measurement": "damage to plant score, ECHCG", "setting": "Echinochloa crus-galli [4]", "result": 5}, {"measurement": "damage to plant score, SETFA", "setting": "Setaria faberi [5]", "result": 5}, {"measurement": "damage to plant score, ZEAMX", "setting": "Zea mays [6]", "result": 3}, {"measurement": "damage to plant score, ABUTH", "setting": "Abutilon theophrasti [7]", "result": 5}, {"measurement": "damage to plant score, ALOMY", "setting": "Alopecurus myosuroides [8]", "result": 5}, {"measurement": "damage to plant score, AMARE", "setting": "Amaranthus retroflexus [9]", "result": 5}, {"measurement": "damage to plant score, ECHCG", "setting": "Echinochloa crus-galli [10]", "result": 5}, {"measurement": "damage to plant score, SETFA", "setting": "Setaria faberi [11]", "result": 5}, {"measurement": "damage to plant score, ZEAMX", "setting": "Zea mays [12]", "result": 4}]}, {"smiles": "CC1C(O)N(c2cc(C(F)(F)F)ccn2)C(=O)N1C", "note": "(stereo not shown) [Compound 1.2, 4-hydroxy-1,5-dimethyl-3-[4-(trifluoromethyl)-2-pyridyl]imidazolidin-2-one]", "values": [{"measurement": "damage to plant score, ABUTH", "setting": "Abutilon theophrasti [1]", "result": 5}, {"measurement": "damage to plant score, ALOMY", "setting": "Alopecurus myosuroides [2]", "result": 4}, {"measurement": "damage to plant score, AMARE", "setting": "Amaranthus retroflexus [3]", "result": 5}, {"measurement": "damage to plant score, ECHCG", "setting": "Echinochloa crus-galli [4]", "result": 4}, {"measurement": "damage to plant score, SETFA", "setting": "Setaria faberi [5]", "result": 5}, {"measurement": "damage to plant score, ZEAMX", "setting": "Zea mays [6]", "result": 3}, {"measurement": "damage to plant score, ABUTH", "setting": "Abutilon theophrasti [7]", "result": 5}, {"measurement": "damage to plant score, ALOMY", "setting": "Alopecurus myosuroides [8]", "result": 5}, {"measurement": "damage to plant score, AMARE", "setting": "Amaranthus retroflexus [9]", "result": 5}, {"measurement": "damage to plant score, ECHCG", "setting": "Echinochloa crus-galli [10]", "result": 5}, {"measurement": "damage to plant score, SETFA", "setting": "Setaria faberi [11]", "result": 5}, {"measurement": "damage to plant score, ZEAMX", "setting": "Zea mays [12]", "result": 4}]}, {"smiles": "CON1C(=O)N(c2cc(C(F)(F)F)ccn2)C(O)C1C", "note": "(stereo not shown) [Compound 1.1, 4-hydroxy-1-methoxy-5-methyl-3-[4-(trifluoromethyl)-2-pyridyl]imidazolidin-2-one]", "values": [{"measurement": "damage to plant score, ABUTH", "setting": "Abutilon theophrasti [1]", "result": 5}, {"measurement": "damage to plant score, ALOMY", "setting": "Alopecurus myosuroides [2]", "result": 4}, {"measurement": "damage to plant score, AMARE", "setting": "Amaranthus retroflexus [3]", "result": 5}, {"measurement": "damage to plant score, ECHCG", "setting": "Echinochloa crus-galli [4]", "result": 4}, {"measurement": "damage to plant score, SETFA", "setting": "Setaria faberi [5]", "result": 5}, {"measurement": "damage to plant score, ZEAMX", "setting": "Zea mays [6]", "result": 2}, {"measurement": "damage to plant score, ABUTH", "setting": "Abutilon theophrasti [7]", "result": 5}, {"measurement": "damage to plant score, ALOMY", "setting": "Alopecurus myosuroides [8]", "result": 5}, {"measurement": "damage to plant score, AMARE", "setting": "Amaranthus retroflexus [9]", "result": 5}, {"measurement": "damage to plant score, ECHCG", "setting": "Echinochloa crus-galli [10]", "result": 5}, {"measurement": "damage to plant score, SETFA", "setting": "Setaria faberi [11]", "result": 5}, {"measurement": "damage to plant score, ZEAMX", "setting": "Zea mays [12]", "result": 2}]}, {"smiles": "CCO[C@@H]1C(O)N(c2cc(C(C)(C)C)on2)C(=O)N1C", "note": "(single isomer, unassigned) [Compound 1.6]", "values": [{"measurement": "damage to plant score, ABUTH", "setting": "Abutilon theophrasti [1]", "result": 5}, {"measurement": "damage to plant score, AMARE", "setting": "Amaranthus retroflexus [3]", "result": 5}, {"measurement": "damage to plant score, ECHCG", "setting": "Echinochloa crus-galli [4]", "result": 4}, {"measurement": "damage to plant score, SETFA", "setting": "Setaria faberi [5]", "result": 1}, {"measurement": "damage to plant score, ZEAMX", "setting": "Zea mays [6]", "result": 2}, {"measurement": "damage to plant score, ABUTH", "setting": "Abutilon theophrasti [7]", "result": 5}, {"measurement": "damage to plant score, AMARE", "setting": "Amaranthus retroflexus [9]", "result": 5}, {"measurement": "damage to plant score, ECHCG", "setting": "Echinochloa crus-galli [10]", "result": 5}, {"measurement": "damage to plant score, SETFA", "setting": "Setaria faberi [11]", "result": 5}, {"measurement": "damage to plant score, ZEAMX", "setting": "Zea mays [12]", "result": 4}]}, {"smiles": "CC1C(O)N(c2cc(C(F)(F)F)n(C)n2)C(=O)N1C", "note": "(stereo not shown) [Compound 1.5, 4-hydroxy-1,5-dimethyl-3-[1-methyl-5-(trifluoromethyl)pyrazol-3-yl]imidazolidin-2-one]", "values": [{"measurement": "damage to plant score, ABUTH", "setting": "Abutilon theophrasti [1]", "result": 5}, {"measurement": "damage to plant score, ALOMY", "setting": "Alopecurus myosuroides [2]", "result": 4}, {"measurement": "damage to plant score, AMARE", "setting": "Amaranthus retroflexus [3]", "result": 5}, {"measurement": "damage to plant score, ECHCG", "setting": "Echinochloa crus-galli [4]", "result": 4}, {"measurement": "damage to plant score, SETFA", "setting": "Setaria faberi [5]", "result": 4}, {"measurement": "damage to plant score, ZEAMX", "setting": "Zea mays [6]", "result": 4}, {"measurement": "damage to plant score, ABUTH", "setting": "Abutilon theophrasti [7]", "result": 5}, {"measurement": "damage to plant score, ALOMY", "setting": "Alopecurus myosuroides [8]", "result": 5}, {"measurement": "damage to plant score, AMARE", "setting": "Amaranthus retroflexus [9]", "result": 5}, {"measurement": "damage to plant score, ECHCG", "setting": "Echinochloa crus-galli [10]", "result": 5}, {"measurement": "damage to plant score, SETFA", "setting": "Setaria faberi [11]", "result": 5}, {"measurement": "damage to plant score, ZEAMX", "setting": "Zea mays [12]", "result": 4}]}]}
